US20090023666A1, “Modulators of Hypoxia Inducible Factor-1 and Related Uses” (priority 2006, published 2009)
Entries after “also recorded” stand apart in the source; their conditions may differ. Like-named read-outs stand apart in the source and are kept apart here.

Experiments:
[1] = test system: HIF-1α sensitive A549 sentinel line; assay: HIF-1α sensitive A549 sentinel line reporter activity (FACS); assay type: cell-based; settings: 24 hours, 5 nM (FIG. 4)
Description: FIGS. 4A-4D are graphs depicting FACS analysis of beta-gal activity in an A549 sentinel line treated with 5 nM of BNC4 (FIG. 4A), BP228 (FIG. 4B), and BP244 (FIG. 4C) in comparison to vehicle only (shown as the shaded portion of the graph) for 24 hours. The graphs indicate frequency of cells (Y-axis) and intensity of fluorescence (X-axis) as measure of pathway activity. The bar chart (FIG. 4D) depicts the relative median fluorescent units of FACS curves.
By using the HIF-1α sensitive A549 sentinel line, the cell line was incubated with either BNC4, BP228 or BP244 for 24 hours and reporter activity was measured by FACS analysis.

[2] = test system: MCF-7; assay: Anti-proliferative activity, MCF-7; assay type: cell-based; settings: Homo sapiens
Description: (§1) FIG. 8 is a graph depicting the mRNA levels of α-1 and α-3 isoforms quantitated by real time RT-PCR (TaqMan) using fluorescent labeled TaqMan probes. Anti-proliferation (IC50 values) activity of BNC4 on indicated cell lines was determined by MTS assay. Total alpha levels (al+a3) were plotted against (1/IC50) X100 values.

[3] = test system: LnCaP; assay: Anti-proliferative activity, LnCaP; assay type: cell-based; settings: Homo sapiens, read-out: Anti-Proliferative activity IC50
Description: as §1

[4] = test system: PC3; assay: Anti-proliferative activity, PC3; assay type: cell-based; settings: Homo sapiens
Description: as §1

[5] = test system: MES-SA-DX5; assay: Anti-proliferative activity, MES-SA-DX5; assay type: cell-based; settings: Homo sapiens
Description: as §1

[6] = test system: HCT116; assay: Anti-proliferative activity, HCT116; assay type: cell-based; settings: Homo sapiens
Description: as §1

[7] = test system: HT29; assay: Anti-proliferative activity, HT29; assay type: cell-based; settings: Homo sapiens
Description: as §1

[8] = test system: A549; assay: cells; assay type: cell-based; settings: Homo sapiens
Description: as §1

[9] = test system: Caki-1 (CAKI); assay: cells; assay type: cell-based; settings: Homo sapiens
Description: as §1

[10] = test system: RPMI-8226; assay: Anti-proliferative activity, RPMI-8226; assay type: cell-based; settings: Homo sapiens
Description: as §1

[11] = test system: CCRF-CEM; assay: Anti-proliferative activity, CCRF-CEM; assay type: cell-based; settings: Homo sapiens, read-out: Anti-Proliferative activity IC50
Description: as §1

[12] = test system: SNB-75; assay: Anti-proliferative activity, SNB-75; assay type: cell-based; settings: Homo sapiens
Description: as §1

[13] = test system: SNB-78; assay: Anti-proliferative activity, SNB-78; assay type: cell-based; settings: Homo sapiens
Description: as §1

[14] = test system: C33A; assay: Anti-proliferative activity, C33A; assay type: cell-based; settings: Homo sapiens, C-33-A, read-out: Anti-Proliferative activity IC50
Description: as §1

[15] = test system: Panc-1 (PANC); assay: Anti-proliferative activity (APA), Panc-1; assay type: cell-based; settings: Homo sapiens
Description: as §1

[16] = test system: HIF-1α and HIF-2α; assay: Induction of HIF-1α and HIF-2α during hypoxia (Western blotting); assay type: cell-based; settings: for HIF-1α and HIF-2α protein expression: Caki-1, A549, Panc-1, Hep3B cells, hypoxia (1% O2) 4 hours, BNC4 0.1 μM, BP228 and BP244 0.1 and 1.0 μM; for protein expression of HIF-1β, NIK, Hsp90, DR4, Bcl-2 and β-actin: same cells and treatment, specificity
Description: Caki-1 (renal cancer), A549 (lung cancer), Panc-1 (pancreatic cancer) and Hep3B (liver cancer) cells were treated with BNC4, BP228 and BP244 under hypoxic conditions. The cells were treated with indicated each compound for 4 hours under normoxic (N, 20% O2) or hypoxic (H, 1% O2) conditions. Expression of HIF-1α, HIF-1β and β-actin and other proteins was analyzed by Western blotting. The HIF-1α and HIF-2α protein levels increased in cells cultured under these conditions for 4 hours without any treatment. […] The inhibition was specific as levels of constitutively expressed HIF-1β were not affected by any of the drugs.

[17] = test system: VEGF; assay: Hypoxia induced VEGF secretion (ELISA); assay type: cell-based; settings: hypoxic conditions, Hep3B, Caki-1 16 hours (FIG. 6)
Description: FIG. 6 is two graphs depicting the effect of BP228 and BP244 on secretion of VEGF. Caki-1 cells were treated with indicated compound and cultured under hypoxia for 16 hours. VEGF levels in conditioned medium were measured using an ELISA kit.
The decrease in HIF-1 correlated closely with declining levels of VEGF secretion. […] Caki-1 cells were treated with indicated compound and cultured under hypoxia for 16 hours. VEGF levels in conditioned medium were measured using an ELISA kit.

[18] = Pharmacokinetics following IP administration in mice; assay type: in vivo; settings: for tlast / Tmax: i.p.; for half-life: read-out: t1/2 (terminal elimination half-life) (converted)
Description: FIG. 13 is a graph depicting the pharmacokinetic profiled of BNC4, BP228 and BP244 in mice. The compounds were administered by intraperitoneal (i.p) injection at 2.5 mg/kg and 5.0 mg/kg for BP228 and at 5.0 mg/kg for BNC4 and BP244. The plasma samples were collected at various time points and concentration of compounds was analyzed by LC-MS. Pharmacokinetic parameters are provided in Example 23.
The compounds were administered by intraperitoneal (i.p) injection at 2.5 mg/kg and 5.0 mg/kg for BP228 and at 5.0 mg/kg for BNC4 and BP244. The plasma samples were collected at various time points and concentration of compounds was analyzed by LC-MS.

[19] = MCF7, read-out: Anti-Proliferative activity IC50
[20] = PC-3, read-out: Anti-Proliferative activity IC50
[21] = MES-SA/Dx5, read-out: Anti-Proliferative activity IC50
[22] = HCT-116, read-out: Anti-Proliferative activity IC50
[23] = HT-29, read-out: Anti-Proliferative activity IC50
[24] = A549, read-out: Anti-Proliferative activity IC50
[25] = CAKI-1, read-out: Anti-Proliferative activity IC50
[26] = RPMI-8226, read-out: Anti-Proliferative activity IC50
[27] = SNB-75, read-out: Anti-Proliferative activity IC50
[28] = SNB-78, read-out: Anti-Proliferative activity IC50
[29] = PANC-1, read-out: Anti-Proliferative activity IC50
[30] = mouse, plasma, ip, 5 mg/kg, 5 mg/kg, read-out: tmax

Compound | reporter activity in A549 sentinel line [1] | IC50 [2, 19] | IC50 ([3]; LNCaP) | IC50 [4, 20] | IC50 [5, 21] | IC50 [6, 22] | IC50 [7, 23] | IC50 [8, 24] | IC50 [9, 25] | IC50 [10, 26] | IC50 [11] | IC50 [12, 27] | HIF-1α and HIF-2α protein expression [16] | protein expression of HIF-1β, NIK, Hsp90, DR4, Bcl-2 and β-actin [16] | VEGF secretion [17] | tlast ([18]; 5 mg/kg) | AUC ([18]; mouse, plasma, ip, 5 mg/kg) | Cmax ([18]; mouse, plasma, ip, 5 mg/kg) | Tmax [18, 30] | half-life ([18]; mouse, plasma, ip, 5 mg/kg) | also measured
C[C@@H]1O[C@@H](O[C@@H]2C=C3CC[C@@H]4[C@H](CC[C@]5(C)[C@@H](c6ccc(=O)oc6)CC[C@]45O)[C@@]3(C)CC2)[C@H](O)[C@H](O)[C@H]1N [BP244] | active in inhibiting the reporter activity | 8.2 nM | 13.8 nM | 5.7 nM | 13.5 nM | 5.1 nM | 8.2 nM | 4.8 nM | 8 nM | 10.7 nM | 4.7 nM | 12.9 nM | inhibition of hypoxia-mediated HIF-1α induction; also recorded: almost complete inhibition | no effect | reduce VEGF secretion | 24 h | 4630 ng·h/mL | 2120 ng/mL | 30 min | 270 min | IC50 [13, 28]: 7.7 nM; IC50 [14]: 5.1 nM; IC50 [15, 29]: 6.6 nM
C[C@@H]1O[C@@H](O[C@@H]2C=C3CC[C@@H]4[C@H](CC[C@]5(C)[C@@H](c6ccc(=O)oc6)CC[C@]45O)[C@@]3(C)CC2)[C@H](O)[C@H](O)[C@H]1O [BNC4, proscillaridin, reference compound] | active in inhibiting the reporter activity |  |  |  |  |  |  |  |  |  |  |  | inhibition of hypoxia-mediated HIF-1α induction; also recorded: almost complete inhibition | no effect | reduce VEGF secretion | 6 h | 4570 ng·h/mL | 3610 ng/mL | 15 min | 48 min | IC50 ([2]; MCF7, MCF-7, Breast (ER+), read-out: Anti-Proliferative activity IC50): 8.4 nM; IC50 ([3]; LnCaP, Prostate): 16.7 nM; IC50 ([4]; PC-3, PC3, Prostate, read-out: Anti-Proliferative activity IC50): 4.1 nM; IC50 ([5]; MES-SA-DX5, Uterine, read-out: Anti-Proliferative activity IC50): 11.6 nM; IC50 ([6]; HCT-116, HCT116, Colon, read-out: Anti-Proliferative activity IC50): 8.1 nM; IC50 ([7]; HT-29, HT29, Colon, read-out: Anti-Proliferative activity IC50): 8.9 nM; IC50 ([8]; A549, NSCL, read-out: Anti-Proliferative activity IC50): 3.5 nM; IC50 ([9]; CAKI-1, CAKI, Renal, read-out: Anti-Proliferative activity IC50): 7.5 nM; IC50 ([10]; RPMI-8226, Myeloma, read-out: Anti-Proliferative activity IC50): 18.2 nM; IC50 ([11]; Leukemia): 6.3 nM; IC50 ([12]; SNB-75, CNS, read-out: Anti-Proliferative activity IC50): 16.8 nM; IC50 ([13]; SNB-78, CNS, read-out: Anti-Proliferative activity IC50): 10.1 nM; IC50 ([14]; C33A, Cervical): 13.6 nM; IC50 ([15]; PANC-1, PANC, Pancreatic, read-out: Anti-Proliferative activity IC50): 3.8 nM
C[C@]12CC/C(=N\OCCN3CCCCC3)C=C1CC[C@@H]1[C@@H]2CC[C@]2(C)[C@@H](c3ccc(=O)oc3)CC[C@]12O [BP228] | active in inhibiting the reporter activity | 19.8 nM | 39.2 nM | 6.2 nM | 15.8 nM | 6.4 nM | 18.9 nM | 7.3 nM | 13 nM | 25.5 nM | 7 nM | 19.2 nM | inhibition of hypoxia-mediated HIF-1α induction; also recorded: almost complete inhibition | no effect | Attenuate Hypoxia Induced VEGF Secretion | 6 h | 2350 ng·h/mL | 1200 ng/mL | 4.98 min | 114 min | IC50 [13, 28]: 15.9 nM; IC50 [14]: 7.2 nM; IC50 [15, 29]: 8.1 nM; tlast ([18]; 2.5 mg/kg): 6 h; Tmax ([18]; 5 mg/kg, listed as BNC228, 5 mg/kg): 5 min; AUC ([18]; mouse, plasma, ip, 2.5 mg/kg): 1020 ng·h/mL; Cmax ([18]; mouse, plasma, ip, 2.5 mg/kg): 715 ng/mL; Tmax ([18]; mouse, plasma, ip, 2.5 mg/kg, 2.5 mg/kg, read-out: tmax): 10 min; half-life ([18]; mouse, plasma, ip, 2.5 mg/kg): 90 min
